Measurements reported in US12642274B2, “Insect neuropeptides 8” (Solasta Bio Limited, priority 2023, dated 2026).
Square brackets hold non-standard residues; d marks the D form. pGlu = O=C1CC[C@@H](C(=O)O)N1

Legend:
[1] = test system: Plutella xylostella; experiment: Leaf dip assay (IRAC method 018, Chinese cabbage); assay type: in vivo; settings: unformulated peptide 2×10^−4 M in 0.5% DMSO, 8% ACN, 0.1% Tween-80 in water, 120 hours; Acetamiprid 0.005% as comparator; conducted by FERA (FIG. 5)
Protocol: Peptides were tested in a leaf dip bioassay using Chinese cabbage on IRAC method 018 against Plutella xylostella. Peptide concentration at 2×10^−4 M in a solution of 0.5% DMSO, 8% ACN, 0.1% Tween-80 in water. Acetamiprid (pesticide) was tested at 0.005%. Vehicle control comprised 0.5% DMSO, 8% ACN, 0.1% Tween-80 in water. Peptide SB-P-86 was tested by a Contract Research Organisation, FERA Science Ltd. The activity of SB-P-86 is shown in FIG. 5; SB-P-86 has good activity whilst being eco-friendly and targeted to specific pests unlike broad spectrum chemical insecticides such as Acetamiprid.

[2] = test system: Spodoptera frugiperda; experiment: Lepidoptera artificial diet assay; assay type: in vivo; settings: unformulated peptide 1×10^−4M in artificial diet, L1 larvae, one larva per cell, n=10, 168 hrs; compared to negative control vehicle and DDT (FIG. 4)
Description: Frontier Lepidoptera Artificial diet was made up by preparing agar at 1% and then mixing it with artificial diet powder. Peptide solution was aliquoted in 10 cells and diet poured straight onto it. The final concentration of the peptide was 1×10^−4M, and each peptide was aliquoted in 10 cells. Once the dict solidified and cooled down, one L1 Spodoptera frugiperda larvae was infested in each cell. The trays were sealed with heat and let larva were allowed to develop for 168 hrs. Finally, pupation and mortality were scored for. Lepidoptera artificial diet assays were performed with SB-P-86, and compared to a negative control vehicle and the insecticide dichlorodiphenyltrichloroethane (DDT).

Question: Which results are given for “[Pyr]-LTFTSSWGG-[NH2] ([pGlu]LTFTSSWGG-NH2; SMILES CC(C)C[C@H](NC(=O)[C@@H]1CCC(=O)N1)C(=O)N[C@H](C(=O)N[C@@H](Cc1ccccc1)C(=O)N[C@H](C(=O)N[C@@H](CO)C(=O)N[C@@H](CO)C(=O)N[C@@H](Cc1c[nH]c2ccccc12)C(=O)NCC(=O)NCC(N)=O)[C@@H](C)O)[C@@H](C)O) [SB-P-86, AKH peptide according to the invention]”?
Answer: activity (leaf dip bioassay) [1]: good activity; activity (pupation and mortality scored) [2]: much higher activity
